Fraction unbound data for 1 compound are collected here from patent publication US12570638B2, “Fused imidazole derivatives as AHR antagonists” (Sail Biomedicines, Inc., priority 2020, dated 2026).

A short description of this data set: Plasma Protein Binding Determination with Ultracentrifugation Method. Type of data set: in vitro ADME. The note with it: human plasma, read-out: Human plasma protein binding (% bound). The protocol:
The frozen plasma (stored at −80° C.) was thawed in a 37° C. water bath, followed by centrifugation at 3,220 g for 10 minutes to remove clots. The supernatant was removed into a new tube as the spun plasma. The spun plasma was pre-warmed in a 37° C. water bath for 10 minutes. The stock solutions of test compounds were diluted to 200 μM in DMSO, and then spiked into the plasma. Duplicate samples were prepared. The final concentration of compound was 1.0 μM. The final concentration of organic solvent was 0.5%. Warfarin was used as positive control in the assay. 1.0 mL of the spiked plasma was transferred to a new balance ultracentrifuge tube. Samples were incubated at 37° C., 5% CO2 for 30 minutes. After incubation, the balance ultracentrifuge tubes were centrifuged at 600,000 g for 5.5 hours at 37° C. […]
Data Analysis: All calculations were carried out using Microsoft Excel. The concentrations of test compound in plasma samples and post-ultracentrifugation plasma was determined from peak areas. The percentages of test compound bound was calculated as follows: […]

Structures are written as SMILES. A value given as a limit tells only on which side of the number the result lay.

For the compound `Cn1ncnc1C(=O)Nc1ccc2nc(-c3ccccc3C(F)(F)F)[nH]c2c1` [Compound H, 1-methyl-N-(2-(2-(trifluoromethyl)phenyl)-1H-benzo[d]imidazol-6-yl)-1H-1,2,4-triazole-5-carboxamide], the fraction unbound at 30 min, 1 μM is less than 0.25.
